In patent publication US7338968B2, “Thiadiazoles AS CXC- and CC- chemokine receptor ligands” (Schering Corporation, priority 2003, dated 2008) one finds Ki and EC50 data, which are given here for three molecules.

Experiment [1] has as its target T1, hCXCR2 (Homo sapiens, UniProt P25025).
T1 construct: purchased Biosignal / Biosignal Packard; host or cells: CHO cells (membranes)
T1 sequence (P25025 1-360): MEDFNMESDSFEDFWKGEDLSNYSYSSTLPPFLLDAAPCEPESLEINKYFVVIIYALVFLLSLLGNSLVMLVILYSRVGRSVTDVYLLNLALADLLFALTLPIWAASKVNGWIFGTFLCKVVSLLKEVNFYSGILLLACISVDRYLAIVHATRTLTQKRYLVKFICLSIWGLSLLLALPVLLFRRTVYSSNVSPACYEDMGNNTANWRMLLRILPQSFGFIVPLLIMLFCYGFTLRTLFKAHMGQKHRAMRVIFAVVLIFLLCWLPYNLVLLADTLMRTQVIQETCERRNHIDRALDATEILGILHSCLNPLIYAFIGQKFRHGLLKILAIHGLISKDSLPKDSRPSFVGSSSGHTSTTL
Briefly: CXCR2 SPA assay ([125I]-IL-8 binding, hCXCR2-CHO membranes; incl. alternative 50 μl and 200 μl protocols). As for the experimental part:
For each well of a 96 well plate, a reaction mixture of 4 μg hCXCR2-CHO overexpressing membranes (Biosignal) and 200 μg/well WGA-SPA beads (Amersham) in 100 μl was prepared in CXCR2 assay buffer (25 mM HEPES, pH 7.4, 2 mM CaCl2, 1 mM MgCl2). A 0.4 nM stock of ligand, [^125I]-IL-8 (NEN), was prepared in the CXCR2 assay buffer. 20× stock solutions of test compounds were prepared in DMSO (Sigma). A 6× stock solution of GRO-α (R&D) was prepared in CXCR2 assay buffer. […]
For each 50 μl reaction, a working stock of 0.031 μg/μl hCXCR2-CHO over-expressing membranes with a specific activity of 0.4 pmol/mg (Biosignal Packard) and 2.5 μg/μl WGA-SPA beads (Perkin Elmer Life Sciences) was prepared in CXCR2 assay buffer (25 mM HEPES, pH 7.4, 2.0 mM CaCl2, 1 mM MgCl2) (Sigma). […] The assay plates were incubated for 2 hours before cpm/well were determined in a Microbeta Trilux counter (Perkin Elmer Life Sciences). IC50 values were quantified using nonlinear regression analysis in GraphPad Prism. […]
For each 200 μl reaction, a working stock of 0.02 μg/μl hCXCR2—CHO over-expressing membranes with a specific activity of 0.6 pmol/mg (Biosignal Packard) and 2 μg/μl WGA-SPA beads (Perkin Elmer Life Sciences) was prepared in CXCR2 assay buffer (25 mM HEPES, pH 7.4, 2.0 mM CaCl2, 1 mM MgCl2) (Sigma). […] IC50 values were quantified using nonlinear regression analysis in GraphPad Prism.

Experiment [2] addresses T2, CCR7 (Homo sapiens, UniProt P32248).
T2 construct: expressed in transfected cells; host or cells: Ba/F3 cells (membranes prepared in house)
T2 sequence (P32248 25-378): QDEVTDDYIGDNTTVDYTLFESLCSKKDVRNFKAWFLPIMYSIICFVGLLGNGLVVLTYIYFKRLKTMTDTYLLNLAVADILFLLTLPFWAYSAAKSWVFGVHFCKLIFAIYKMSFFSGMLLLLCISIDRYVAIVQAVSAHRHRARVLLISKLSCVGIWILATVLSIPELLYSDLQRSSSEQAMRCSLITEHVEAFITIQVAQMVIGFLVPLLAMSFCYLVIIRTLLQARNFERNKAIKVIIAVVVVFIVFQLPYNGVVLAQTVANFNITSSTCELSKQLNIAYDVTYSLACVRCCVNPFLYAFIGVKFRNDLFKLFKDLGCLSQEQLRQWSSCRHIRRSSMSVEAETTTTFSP
In words: CCR7 [35S]GTPγS exchange assay (SPA, Ba/F3-CCR7 membranes, 2 nM MIP-3). It is filed as biochemical. As for the experimental part:
CCR7 Membrane Preparation.
Ba/F3-CCR7 membranes were prepared as previously described (Hipkin et al., J. Biol. Chem., 272, 1997, 13869-76). Cells were pelleted by centrifugation, incubated in homogenization buffer (10 mM Tris-HCl, 5 mM EDTA, 3 mM EGTA, pH 7.6) and 1 μM PMSF for 30 min. on ice. The cells were then lysed with a Dounce homogenizer using stirrer type RZR3 polytron homogenizer (Caframo, Wiarton, Ont.) with 12 strokes at 900 RPM. The intact cells and nuclei were removed by centrifugation at 500×g for 5 min. The cell membranes in the supernatant were then pelleted by centrifugation at 100,000×g for 30 min. The membranes were then resuspended in glygly buffer (20 mM glycylglycine, 1 mM MgCl2, 250 mM sucrose, pH 7.2), aliquoted, quick frozen and stored at −80° C.
CCR7 [^35S]GTPγS Exchange Assay.
The exchange of guanosine 5′-[γ-^35S]triphospate ([^35S]GTPγS, triethylammonium salt; specific activity=1250 Ci/mmol; NEN Boston, Mass.) was measured using a scintillation proximity assay (SPA) as previously described (Cox, et. al., Mol. Pharmacol., 59, 2001, 707-15). […] Membrane-bound [^35S]GTPγS was measured using a 1450 Microbeta Trilux counter (Wallac, Gaithersburg, Md.).
A general note: GTPγS is a poorly hydrolysed GTP analogue; its binding reports G protein activation.

In experiment [3] the target is T3, hCXCR1 (Homo sapiens, UniProt P25024).
T3 construct: purchased Biosignal / Biosignal Packard; alternatively Euroscreen; host or cells: CHO cells (membranes)
T3 sequence (P25024 1-350): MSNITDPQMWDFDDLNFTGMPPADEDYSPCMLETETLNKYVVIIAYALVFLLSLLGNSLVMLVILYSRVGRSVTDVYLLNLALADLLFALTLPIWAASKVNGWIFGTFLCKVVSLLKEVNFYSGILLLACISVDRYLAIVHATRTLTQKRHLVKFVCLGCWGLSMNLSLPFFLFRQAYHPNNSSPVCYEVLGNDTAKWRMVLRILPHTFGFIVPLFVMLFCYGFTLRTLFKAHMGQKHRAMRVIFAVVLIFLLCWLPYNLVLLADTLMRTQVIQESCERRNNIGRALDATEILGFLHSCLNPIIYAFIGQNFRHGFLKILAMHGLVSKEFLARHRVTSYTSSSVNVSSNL
In words: CXCR1 SPA assay ([125I]-IL-8 binding, hCXCR1-CHO membranes; incl. alternative Biosignal Packard and Euroscreen protocols).
Description: For each well of a 96 well plate, a reaction mixture of 10 μg hCXCR1-CHO overexpressing membranes (Biosignal) and 200 μg/well WGA-SPA beads (Amersham) in 100 μl was prepared in CXCR1 assay buffer (25 mM HEPES, pH 7.8, 2 mM CaCl2, 1 mM MgCl2, 125 mM NaCl, 0.1% BSA) (Sigma). A 0.4 nM stock of ligand, [125I]-IL-8 (NEN) was prepared in the CXCR1 assay buffer. 20× stock solutions of test compounds were prepared in DMSO (Sigma). […] The above solutions were added to a 96-well assay plate (PerkinElmer) as follows: 10 μl test compound or DMSO, 40 μl CXCR1 assay buffer or IL-8 stock, 100 μl of reaction mixture, 50 μl of ligand stock (Final [Ligand]=0.1 nM).
For each 50 μl reaction, a working stock of 0.25 μg/μl hCXCR1-CHO over-expressing membranes with a specific activity of 0.05 pmol/mg (Biosignal Packard) and 25 μg/μl WGA-SPA beads (Perkin Elmer Life Sciences) was prepared in CXCR1 assay buffer (25 mM HEPES, pH 7.8, 0.1 mM CaCl2, 1 mM MgCl2, 100 mM NaCl) (Sigma). This mixture was incubated on ice for 30 minutes and then centrifuged at 2500 rpm for 5 minutes. The beads and membranes were resuspended in CXCR1 assay buffer to the same concentrations as in the original mixture. […] The assay plates were incubated for 4 hours before cpm/well were determined in a Microbeta Trilux counter (Perkin Elmer Life Sciences). IC50 values were quantified using nonlinear regression analysis in GraphPad Prism. […]

For orientation: Ki means a dissociation constant, usually derived from enzyme kinetics or from competition with a known ligand. What is called EC50 is the midpoint of the concentration-response curve. `Cc1ccc([C@H](Nc2nsnc2Nc2cccc(C(=O)N(C)C)c2O)C(C)(C)C)o1` [Example 6] yielded a Ki in experiment [1] of 14 nM. This molecule showed a half-maximal effective concentration (EC50) in experiment [2] of 22 nM. Take `CC[C@@H](Nc1nsnc1Nc1cccc(C(=O)N(C)C)c1O)c1cc(C(C)C)co1` [Example 1]: the values for the inhibition constant (Ki) in experiment [1] and in experiment [3] were 28 nM and 808 nM, respectively. The molecule `Cc1ccc([C@H](Nc2nsnc2Nc2cccc(C(=O)N(C)C)c2O)C(C)C)o1` [Example 3] yielded an EC50 in experiment [2] of 880 nM.
